Measurements reported in ChEMBL document CHEMBL1140694, “Identification of new functional inhibitors of acid sphingomyelinase using a structure-property-activity relation model” (J Med Chem, 2008).

Key:
[1] = Partition coefficient, log P of the compound; assay type: physicochemical; conditions: octanol/water

Description for physchem: Dissociation constant, pKa of the compound

| SMILES | pKa (physchem) | logP ([1]; read-out: LogP) | logP [1] |
| --- | --- | --- | --- |
| CN(Cc1cc(Br)cc(Br)c1N)C1CCCCC1 [BROMHEXINE] | 8.5 |  |  |
| C(=C\c1ccccc1)/CN1CCN(C(c2ccccc2)c2ccccc2)CC1 [CINNARIZINE] | 7.47 |  |  |
| Nc1ncn([C@@H]2O[C@H](CO)[C@@H](O)[C@H]2O)c(=O)n1 [AZACITIDINE] |  | -2.17 |  |
| COc1cc(N)c(Cl)cc1C(=O)NC1CCN(Cc2ccccc2)CC1 [CLEBOPRIDE] | 8.59 | 2.72 |  |
| O=C1NCN(c2ccccc2)C12CCN(CCCC(c1ccc(F)cc1)c1ccc(F)cc1)CC2 | 8.66 | 5.83 |  |
| O=c1[nH]c2ccccc2n1C1CCN(CCCC(c2ccc(F)cc2)c2ccc(F)cc2)CC1 [PIMOZIDE] | 8.63 |  |  |
| Fc1ccc(C(c2ccc(F)cc2)N2CCN(C/C=C/c3ccccc3)CC2)cc1 [FLUNARIZINE] | 7.71 | 6.42 |  |
| CN(C)CCCN1c2ccccc2Sc2ccccc21 [PROMAZINE] | 9.34 |  |  |
| CCCCNc1ccc(C(=O)OCCN(C)C)cc1 [TETRACAINE] | 8.39 | 3.73 |  |
| N#Cc1ccc2c(c1)N(CCCN1CCC(O)CC1)c1ccccc1S2 [PERICIAZINE] | 8.76 |  |  |
| NC(=O)C1(N2CCCCC2)CCN(CCCC(=O)c2ccc(F)cc2)CC1 [PIPAMPERONE] | 8.28 |  |  |
| COc1ccc(CCN2CCC(Nc3nc4ccccc4n3Cc3ccc(F)cc3)CC2)cc1 [ASTEMIZOLE] | 8.5 | 5.48 |  |
| COc1ccc(CN(CCN(C)C)c2ccccn2)cc1 [PYRILAMINE] | 8.92 |  |  |
| CN1CCC(OC(c2ccccc2)c2ccccc2)CC1 | 8.9 |  |  |
| CN1CCC(=C2c3ccccc3CC(=O)c3sccc32)CC1 [KETOTIFEN] | 8.24 | 3.56 |  |
| CN(C)CC/C=C1\c2ccccc2COc2ccccc21 [DOXEPIN] |  | 4.01 |  |
| C[C@H]1[C@H]2Cc3ccc(O)cc3[C@]1(C)CCN2CC1CC1 [CYCLAZOCINE] | 9.38 |  | 3.31 |
| Cc1ccc(C(=CCN2CCCC2)c2ccccn2)cc1 [TRIPROLIDINE] | 9.69 | 3.47 |  |
| CN[C@H]1CC[C@@H](c2ccc(Cl)c(Cl)c2)c2ccccc21 (single isomer, unassigned) [SERTRALINE] | 9.16 | 4.3 |  |
| COc1cccc([C@@]2(O)CCCC[C@@H]2CN(C)C)c1 [TRAMADOL] | 9.37 |  |  |
| CN(C)CC/C=C1/c2ccccc2Sc2ccc(Cl)cc21 [CHLORPROTHIXENE] | 8.84 | 5.18 |  |
| CNCCCC12CCC(c3ccccc31)c1ccccc12 [MAPROTILINE] |  | 4.5 |  |
| O[C@@](CCN1CCCCC1)(c1ccccc1)C1CCCCC1 [TRIHEXYPHENIDYL] | 8.7 |  |  |
| COc1ccc2c(c1OC)C(=O)O[C@@H]2[C@H]1c2c(cc3c(c2OC)OCO3)CCN1C [NOSCAPINE] | 6.2 |  |  |
| CCN(CC)CCNC(=O)c1cc(Br)c(N)cc1OC [BROMOPRIDE] | 9.35 |  |  |

| SMILES | pKa (physchem) | logP ([1]; read-out: LogP) | logP [1] |
| --- | --- | --- | --- |
| CN(C)CCCN1c2ccccc2Sc2ccc(Cl)cc21 [CHLORPROMAZINE] |  | 5.19 |  |
| CCN1CCCC1CNC(=O)c1cc(S(N)(=O)=O)ccc1OC (stereo not given) [SULPIRIDE] |  | 0.42 |  |
| Cc1ccccc1C(OCCN(C)C)c1ccccc1 (stereo not given) [ORPHENADRINE] | 8.4 |  |  |
| CN1CCN(C2=Nc3cc(Cl)ccc3Nc3ccccc32)CC1 [CLOZAPINE] |  | 3.42 |  |
| NCCc1cc(O)c(O)cc1O [OXIDOPAMINE] | 10.3 |  |  |
| CC(NCCC(c1ccccc1)c1ccccc1)c1ccccc1 (stereo not given) [FENDILINE] | 9.04 | 4.89 |  |
| CC(C)(C)c1ccc(C(O)CCCN2CCC(C(O)(c3ccccc3)c3ccccc3)CC2)cc1 (stereo not given) [TERFENADINE] | 8.6 |  |  |
| Cc1c(-c2ccccc2)oc2c(C(=O)OCCN3CCCCC3)cccc2c1=O [FLAVOXATE] | 7.3 |  |  |
| CCCCOc1cc(C(=O)NCCN(CC)CC)c2ccccc2n1 [DIBUCAINE] | 8.85 |  |  |
| COc1ccc(Cc2nccc3cc(OC)c(OC)cc23)cc1OC [PAPAVERINE] | 6.25 | 2.93 |  |
| CC(CN(C)C)CN1c2ccccc2Sc2ccccc21 (stereo not given) [METHYLPROMAZINE] | 9.11 | 4.81 |  |
| c1ccc(CN(CC2=NCCN2)c2ccccc2)cc1 [ANTAZOLINE] | 10.1 | 4.24 |  |
| CN1CCC(=C2c3ccccc3C=Cc3ccccc32)CC1 [CYPROHEPTADINE] | 8.87 |  |  |
| CN1[C@@H]2CC[C@H]1C[C@@H](OC(c1ccccc1)c1ccccc1)C2 [BENZTROPINE] | 10 |  |  |
| COc1cc(N)c(Cl)cc1C(=O)NC1CCN(CCCOc2ccc(F)cc2)CC1OC (stereo not given) [CISAPRIDE] | 7.9 |  |  |
| Cc1nc2sccn2c(=O)c1CCN1CCC(=C(c2ccc(F)cc2)c2ccc(F)cc2)CC1 [RITANSERIN] | 8.2 |  |  |
| CC12CC3CC(C)(C1)CC(N)(C3)C2 [MEMANTINE] | 10.4 |  |  |
| CNC1(C)C2CCC(C2)C1(C)C (stereo not given) [MECAMYLAMINE] | 11.2 |  |  |
| O=C(CCCN1CCC(O)(c2ccc(Cl)cc2)CC1)c1ccc(F)cc1 [HALOPERIDOL] |  | 3.23 |  |
| COC(=O)[C@H]1[C@H]2C[C@@H]3c4[nH]c5cc(OC)ccc5c4CCN3C[C@H]2C[C@@H](OC(=O)c2cc(OC)c(OC)c(OC)c2)[C@@H]1OC [RESERPINE] | 6.6 | 3.72 |  |
| COCC(=O)O[C@]1(CCN(C)CCCc2nc3ccccc3[nH]2)CCc2cc(F)ccc2[C@@H]1C(C)C [MIBEFRADIL] |  |  | 3.86 |
| COc1ccc2c(c1)[nH]c1c(C)nccc12 [HARMINE] | 7.5 |  |  |
| O=c1[nH]c2ccccc2n1CCCN1CCC(n2c(=O)[nH]c3cc(Cl)ccc32)CC1 [DOMPERIDONE] |  | 4.05 |  |
| CCOC(=O)c1cncn1[C@H](C)c1ccccc1 [ETOMIDATE] | 4.5 | 3.05 |  |
